Experimental data as given in patent US20140142000A1, “MICROFLUIDIC ARRAY PLATFORM FOR SIMULTANEOUS CELL CULTURE UNDER OXYGEN TENSIONS” (Academia Sinica, priority 2012, published 2014).

Assays:
[1] = system: A 549 cells; assay: Fluorescence-based cell viability in conventional 96-well plates with oxygen tension-controlled incubator, compared with the device; set-up: species or system human; settings: 96-well plate, 48 hours, normoxia and hypoxia
Protocol: A comparison of cell viabilities under various drug treatments in normoxia and hypoxia conditions using the cell culture array platform according to the invention and conventional 96-well plates (167008, Nunclon DELTA Surface, Nunc) with an oxygen tension-controlled cell incubator (Heracell 240i, Thermo Scientific). In the well plate experiments, approximate 5000 A 549 cells were seeded into each well. The cells with 80 μl medium were incubated overnight in the cell incubator to ensure the cell attachment onto the wells before the drug treatments, and 20 μl drug solutions with various TPZ concentrations were than added into the wells. The cells were incubated with drug-contained medium for 48 hours. After the testing, the cell viabilities were estimated using the fluorescence-based cell viability assay, and read by the plate reader.

[2] = in vitro; type: cell-based; settings: human
Protocol: To examine the performance of the array on a chip form for cell culture, carcinomic human alveolar basal epithelial cells (A549, ATCC, Manassas, Va., USA) were utilized. A549 cells were cultured in F-12K medium (Gibco 21127, Invitrogen Co., Carlsbad, Calif., USA) with 10% v/v fetal bovine serum (FBS) (Gibco 10082, Invitrogen Carlsbad, Calif., USA) and 1% v/v antibiotic-antimycotic (Gibco 15240, Invitrogen, Carlsbad, Calif., USA). The stocks were maintained under 5% CO2 in T25 cell culture flasks (Nunc 156367, Thermo Scientific Inc., Rochester, N.Y., USA), and passaged by dissociation with 0.25% trypsin-EDTA (Gibco 25200, Invitrogen, Carlsbad, Calif., USA). […]
For oxygen scavenging, pyrogallol (benzene-1,2,3-triol, C6H6O3) (87-66-1, Alfa Aesar, Ward Hill, Mass., USA) and sodium hydroxide (NaOH) (30620, Sigma-Aldrich, St Louis, Mo., USA) were introduced into the microfluidic channels to control oxygen tensions. The oxygen tensions in the cell culture wells were calibrated by measuring the relative fluorescence lifetime of an oxygen sensitive fluorescence dye, tris(2,2′-bypyridyl) ruthenium […] chloride (50525-27-4, Acros Organics, Geel, Belgium), while flowing chemicals in the underneath channels with various concentrations using the experimental setup as shown in FIG. 2(a). […]

[3] = system: A549 cells; assay: Cell morphology and attachment of A549 cells cultured with TPZ on the array platform; type: cell-based, human; settings: 48 hours
Protocol: In the experiments, 1 M NaOH and pyrogallol solutions with concentrations of 0, 190, and 500 μg ml^−1 at flow rates of […] were used to set the oxygen tensions inside the cell culture wells as normoxia (˜20%), 7.0%, and 1.4%, respectively, and the drug, TPZ, with concentrations of […] were applied. The cells were cultured under different conditions, including: 20% oxygen and 0 mM TPZ; 20% oxygen and 50 mM TPZ; and 1.4% oxygen and 50 mM TPZ, for 48 hours. […] Furthermore, the cell viability was checked using a live/dead stain solution containing calcein AM (1 mM) and ethidium homodimer-1 (2 mM) from LIVE/DEAD Viability/Cytotoxicity Kit (L3224, Invitrogen). The great viability (>95% by analyzing four fluorescence images taken in different cell culture wells using an image analysis software MetaMorph from Molecular Devices, Sunnyvale, Calif.) of the cells cultured under the control conditions for 48 hours confirmed the great cell compatibility of the multi-layer PDMS microfluidic device according to the invention. […] To quantitatively characterize the cell viabilities of A549 cells treated with TPZ under various oxygen tensions, the PrestoBlue cell viability assays were performed in the experiments. The developed microfluidic array platform can be directed placed into a microplate reader commonly used in biological labs for assay readout. […]

[4] = system: A549 cells; assay: PrestoBlue normalized cell viability of A549 cells treated with TPZ under various oxygen tensions on the array platform (48 hours); type: cell-based, human
Protocol: In the experiments, 1 M NaOH and pyrogallol solutions with concentrations of 0, 190, and 500 μg ml^−1 at flow rates of 20 μml^−1 were used to set the oxygen tensions inside the cell culture wells as normoxia (˜20%), 7.0%, and 1.4%, respectively, and the drug, TPZ, with concentrations of 0, 10, 25, 50, and 100 mM were applied. The cells were cultured under different conditions, including: 20% oxygen and 0 mM TPZ; 20% oxygen and 50 mM TPZ; and 1.4% oxygen and 50 mM TPZ, for 48 hours. […] Furthermore, the cell viability was checked using a live/dead stain solution containing calcein AM (1 mM) and ethidium homodimer-1 (2 mM) from LIVE/DEAD Viability/Cytotoxicity Kit (L3224, Invitrogen). […] To quantitatively characterize the cell viabilities of A549 cells treated with TPZ under various oxygen tensions, the PrestoBlue cell viability assays were performed in the experiments. […] In order to minimize variations between the experiments, the measured fluorescence intensity from each well was normalized to the average intensity of the cell culture wells, in which the cells were cultured under normoixa without TPZ (i.e. 0 mM TPZ). To compare the differences between the normalized cell viabilities for various oxygen tensions, statistical analysis, unpaired, two-tailed Student's t-tests were performed in this study.

## Nc1n[n+]([O-])c2ccccc2[n+]1[O-] [TPZ, 3-amino-1,2,4-benzotriazine-1,4-dioxide]
[1]
  hypoxia-activated cytotoxicity in well plates compared with the device: more hypoxia-activated cytotoxicity
[2]
  cytotoxicity at 12 h: > 20%
[3]; 1.4% oxygen and 50 mM TPZ
  cell morphology / attachment: more cells became rounded and detached from the substrate
[3]; 20% oxygen and 50 mM TPZ
  cell morphology / attachment: the shapes of the cells became rounded and some cells detached from the substrate
[4]
  normalized cell viability at 1.4% oxygen tension versus 7.0% oxygen tension: lower statistically than that for the 7.0% oxygen tension condition
[4]; TPZ concentrations higher than 25 mM, normalized to normoxia without TPZ
  normalized cell viability, normoxia higher than low oxygen tensions (7.0% and 1.4%): more than 20%
